The values that follow come from patent US20250009740A1, “METHODS AND COMPOSITIONS FOR TARGETING ALTERNATIVE METABOLISM ALONG WITH FLT3 INHIBITOR-MEDIATED ANTILEUKEMIC ACTIONS” (Ohio State Innovation Foundation, priority 2021, published 2025).

One data set deals with MV4-11 cells. Description: Pairwise dose combination synergy, MTS cell viability, HSA analysis. The data set is classed as cell-based. As to the method:
(§1) For dinaciclib, cells were treated for 2 hours with the drug before it was washed off and all other drugs were incubated with cells for 48-96 hours. Cell viability was measured with MTS. HSA analysis was used to determine regions of synergy. […] MOLM-13 and MV4-11 cells were treated with vehicle, 50 nM or 100 nM brequinar in combination with vehicle, 4 nM or 8 nM gilteritinib for 96 hours before cells were fixed and permeabilized for intracellular BV421-Ki67 staining and flow cytometry analysis. […] Primary cells were treated with vehicle, single agents or drug combination before cell apoptosis was measured with Annexin V/PI staining. Results are shown as mean±SEM of 3 biological replicates. […] Bone marrow cells from 3 FLT3-ITD patients, 2 FLT3-WT patients and 2 healthy donors were seeded into Methocult at 50,000 cells per condition with vehicle, single agents or drug combinations. The numbers of colonies were quantified for 1st and 2nd platings after 14 days post seeding. Results are shown as means of 2 biological replicates. * p<0.05 in comparison with EPZ015666, dinaciclib or brequinar alone.
(§2) Next, it was determined whether pharmacologic inhibition of CDK9, DHODH or PRMT5, using commercially available inhibitors (brequinar for DHODH, dinaciclib for CDK1/2/5/9, and EPZ015666 for PRMT5) is synergistic with gilteritinib in AML cells.

Data set [1] concerns MOLM-13 cells. The description is as above. The data set is classed as cell-based, human. The procedure: as §1, §2
Another data set relates to MOLM-13 luciferase cells. The data set can be described thus: MOLM-13-Luc+ FLT3-ITD AML xenograft in NCG mice. The data set is classed as in vivo, mouse. To be noted: 10 mg/kg dinaciclib weekly i.p., 30 mg/kg gilteritinib daily oral gavage, or both; vehicle 24 days.
The subject of data set [2] is shRNA-stable MOLM-13 cells. The data set can be described thus: Annexin V/PI flow cytometry of shRNA-stable cells treated with gilteritinib. The data set is classed as cell-based, human. The settings on record: 8 nM gilteritinib, 120 hours. As to the method:
(A-D) Knockdown efficiency of selected targets by shRNA as detected by qPCR and Western blotting; GAPDH or β-actin serves as loading control. N=2. *p<0.05; **p<0.01; (E-H) Dose-response curves of shCDK9, shDHODH, shPRMT5 and shCDK7-stable MOLM-13 cells in response to 120-hour gilteritinib treatment. Cell viability was measured with MTS. Results are shown as mean±SEM of 4 technical replicates and 3-4 biological replicates. ***p-value<0.0001; ns=not significant. I) Knockdown of CDK9, PRMT5 or DHODH but not CDK7 with shRNA increases the frequency of apoptotic AML cell lines with gilteritinib. Parental, scrambled or gene-targeting shRNA-stable MOLM-13 cells were treated with 8 nM gileritinib for 120 hours and stained with Annexin V/PI for flow cytometry analysis. Data are shown as mean±SEM of % population from triplicates.
DHODH, CDK9 and PRMT5 genes were selected for validation, in light of their strong synergistic interactions with gilteritinib and availability of clinical grade inhibitors. MOLM-13 cells were transduced with shRNA targeting each of these genes and knockdown efficiencies were confirmed via qPCR and Western Blotting (FIG. 2A-D). Scrambled or gene-targeting shRNA transduced cells were treated with gilteritinib (2-25 nM dose range) for 120 hours followed by MTS analysis to quantify cell proliferation.
Background: In flow cytometry, cells or beads pass a laser one at a time.

In data set [3] the test system is MOLM-13 cells. Description: Proliferation assay of FLT3 inhibitor with telaglenastat, HSA analysis. The data set is classed as cell-based, human. To be noted: MOLM-13, 48 hours. The procedure:
Proliferation assay of a range of doses of midostaurin or gilteritinib with telaglenstat on MOLM-13 cells treated for 48 hours. Highest single agent (HSA) analysis was used to determine regions of synergy.
FLT3-ITD inhibition reduces glutaminolysis by blocking glutamine influx through SLC1A5, the primary glutamine transporter^15,16. SLC38A2 can serve as a redundant glutamine transporter to compensate the deficiency of SLC1A5^17.

[4] abbreviates: gilteritinib paired with dinaciclib or EPZ015666.
The mark [5] stands for this setting: gilteritinib paired with dinaciclib or EPZ015666, dinaciclib 2 hours then washed off, others 48-96 hours.

Experimental for MOLM-13 luciferase cells: (A) NCG mice were engrafted with MOLM-13 cells expressing luciferase and treated with vehicle, 10 mg/kg dinaciclib weekly, 30 mg/kg gilteritinib daily, or dinaciclib/gilteritinib combination.
Animal Studies All animal studies were carried out under protocols approved by The Ohio State University Institutional Animal Care and Use Committee (IACUC). 1×10^5 MOLM-13 luciferase cells were injected via tail vein into male NOD-Prkdc^em26Cd52Il2rg^em26Cd22/NjuCrl (NCG) from the Charles River Laboratory. On day 4 post-engraftment, mice were randomized to treatment arms. Mice received the following drugs and doses: weekly intraperitoneal injections of 10 mg/kg dinaciclib (MedChemExpress HY-10492) in 20% cyclodextrin (CTD THPB-P) diluted just prior to injection, daily oral gavage of 30 mg/kg gilteritinib (MedChemExpress HY-1432) in 6% drug w/w gelucire 44/14 (Gattefosse, France) aliquoted and mixed with drug weekly, oral gavage of vehicle control (gelucire 44/14), or combination therapy at single-agent regimens.

Turning to `O=C(NC[C@H](O)CN1CCc2ccccc2C1)c1cc(NC2COC2)ncn1` [EPZ015666], the “maximum synergy (drug concentration)” value in the data set with MV4-11 cells (in combination with 0.1-8 nM gilteritinib) lay in the range of 3000 to 100000 nM. The “synergy range (drug concentration)” value in the data set on MOLM-13 cells [1] (in combination with 2-10 nM gilteritinib) was 1000 to 100000 nM.
`CCc1cnn2c(NCc3ccc[n+]([O-])c3)cc(N3CCCC[C@H]3CCO)nc12` [dinaciclib]: the mean survival time in the data set with MOLM-13 luciferase cells is 27.5 days. In addition, the “maximum synergy (drug concentration)” value with MV4-11 cells (setting [4]) was in the range of 0.0075 to 0.01 nM. Further, the “synergy range (drug concentration)” value in the data set with MOLM-13 cells [1] (setting [5]) lay within 0.0075 to 0.01 nM.
Molecule `CCc1nc(C(N)=O)c(Nc2ccc(N3CCC(N4CCN(C)CC4)CC3)c(OC)c2)nc1NC1CCOCC1` [gilteritinib] gave a mean survival time in the data set with MOLM-13 luciferase cells of 39 days. Moreover, in the data set with MV4-11 cells (setting [4]), the “maximum synergy (drug concentration)” value lay within 0.1 to 8 nM. Moreover, the “increase of necroptotic/apoptotic cells vs scrambled control” value is 9 fold in data set [2] (knockdown of CDK9), 5 fold in data set [2] (knockdown of DHODH) and 2.6 fold in data set [2] (knockdown of PRMT5). Further, in the data set on MOLM-13 cells [1] (setting [5]), the “synergy range (drug concentration)” value fell in the range of 2 to 10 nM.
For the molecule `O=C(Cc1cccc(OC(F)(F)F)c1)Nc1ccc(CCCCc2nnc(NC(=O)Cc3ccccn3)s2)nn1` [telaglenastat], in the data set on MOLM-13 cells [3], the “cytotoxic effect in combination with gilteritinib” value is “synergistic cytotoxic effect” and the “cytotoxic effect in combination with midostaurin” value is given as “synergistic cytotoxic effect”.
